Source: article PMC2639213 (Journal of medicinal chemistry, 2008)

Biological target: APSR (Mycobacterium tuberculosis, UniProt P9WIK3)
Experiment: standard radioactive assay measuring APSR reduction of 35S-labeled APS substrate
Type: biochemical, M. tuberculosis
Settings: for inhibition at 100 µM: read-out: inhibition of APSR activity, tested at 100 μM

Chain of APSR (P9WIK3 whole entry): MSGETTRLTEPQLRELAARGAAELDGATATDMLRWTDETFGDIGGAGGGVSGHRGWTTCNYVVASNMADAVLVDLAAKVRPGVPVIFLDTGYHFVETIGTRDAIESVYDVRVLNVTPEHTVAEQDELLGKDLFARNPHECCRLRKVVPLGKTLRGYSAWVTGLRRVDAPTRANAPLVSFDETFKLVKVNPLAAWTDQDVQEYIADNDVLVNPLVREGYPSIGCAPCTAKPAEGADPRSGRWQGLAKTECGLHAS

Row | SMILES | inhibition at 100 µM [%] | activity against APSR (in words)
1 | O=C(O)CCc1nnc2c3ccccc3c3ccccc3c2n1 [NSC 327704] | > 50 | –
2 | O=C1c2ccccc2-c2ccc([N+](=O)[O-])cc21 [2-nitro-9-fluorenone] | – | neither 9-fluorenone nor 2-nitro-9-fluorenone, which are closely related to 133896, exhibited significant activity
3 | O=C1c2ccccc2-c2ccccc21 [9-fluorenone] | – | neither 9-fluorenone nor 2-nitro-9-fluorenone, which are closely related to 133896, exhibited significant activity
4 | O=C1c2ccccc2-c2cc([N+](=O)[O-])c([N+](=O)[O-])cc21 [NSC 133896] | > 50 | –
